Reference: patent publication US20150335634A1, “ISOQUINOLINE ALKALOID DERIVATIVE FOR ACTIVATING AMP-DEPENDENT PROTEIN KINASE” (ZIH YUAN TANG Biotechnology Co., Ltd, priority 2014, published 2015)

Key:
[1] = tested on: AMP-dependent protein kinase (AMPK); assay: AMPK phosphorylation (Phospho-AMPKα Thr172 Western blot) in C2C12 myocytes; format: cell-based, mice
Procedure: C2C12 skeletal myoblast cell line was purchased from the Food Industry Research and Development Institute (Hsinchu, Taiwan). The C2C12 cell line was a cell line obtained from culturing the leg skeletal muscle of adult C3H mice in a cell incubator under 95% […], 5% CO2, and 37° C. The cells were cultured in a DMEM medium (Gibco/Invitrogen, Carlsbad, Calif.) containing 4.5 mg/mL glucose, 10% fetal bovine serum (FBS; Gibco/Invitrogen, Carlsbad, Calif.), and an antibiotic solution (with final concentrations of penicillin=100 IU/mL and streptomycin=100 μg/mL). When the C2C12 myoblast cells have proliferated to cover seven-tenths of the area in the petri dish, the fetal bovine serum was replaced by 2% horse serum (Gibco/Invitrogen, Carlsbad, Calif.) so as to induce the C2C12 myoblast cells to become the multi-nuclei myocytes. The C2C12 myoblast cells differentiated into myocytes in 4 days, and the culture medium of the cells was replaced with no-serum DMEM 24 hours before the experiments so as to reduce metabolism of the cells.
The C2C12 myocytes were treated respectively with 1 μM, 3 μM and 10 μM salsolinol and reticuline for 5 and 15 minutes. Then the C2C12 myocytes were rinsed with PBS buffer solution, and RIPA buffer solution containing protease inhibitors (20 mM Tris-HCl (pH 7.4), 100 mM NaCl, 1 mM EDTA, 1 mM EGTA, 0.1% SDS, 0.5% sodium deoxycholate, 1% NP-40, and 100X protease inhibitor cocktail) was added into the cells. The cells were collected and centrifuged on ice. Then, the concentrations of the supernatant samples were adjusted to be the same.
The supernatant samples were put through vertical electrophoresis isolation with 8% SDS-PAGE, and the isolated proteins were transferred onto a PVDF blotting membrane. After blotting was completed, the PVDF blotting membrane was removed and blocked for 1 hour under room temperature with a blocking buffer of TBST (Tris-buffered saline with Tween-20) with 5% non-fat milk. Then, the PVDF blotting membrane was placed into a 5% BSA and TBST solution containing the primary monoclonal antibodies Phospho-AMPKα (Thr172) (Cell Signaling) (1:1000) and AMPKα […] (Cell Signaling) (1:1000), respectively, and the primary immunoblotting reaction was performed under 4° C. Then, the PVDF blotting membrane was rinsed 3 times with TBST, and a TBST solution containing the secondary antibody goat anti-rabbit IgG (Perkin Elmer) (1:10000) was added to perform the secondary reaction for one hour under room temperature. Finally, the membrane was rinsed 3 times with TBST before ECL (enhanced chemiluminescence) was added to present color.

[2] = tested on: ICR mice with Type II diabetes induced by high-sugar high-lipid food; assay: oral glucose tolerance test (OGTT) in ICR mice fed with high-lipid food and high fructose syrup; format: in vivo
Procedure: (§1) ICR mice were each fed with high-lipid food and high fructose syrup for 2 weeks. Then, salsolinol (10 mg/Kg/day) and Glibenclamide (10 mg/Kg) were administered on day 1. After 30 minutes, glucose (1 g/Kg) was orally administered and blood was taken from the mice immediately thereafter (this time point was designated as 0 minute). Blood was also taken later at 30, 60, 90, 120 and 150 minutes, and the blood glucose levels in the serum were determined
as §1, with “weeks, and then administered with salsolinol (10 mg/Kg/day) and Glibenclamide (10 mg/Kg) for 14 consecutive days. Afterwards,” for “weeks. Then,”, “again administered, and” for “administered on day 1. After 30 minutes,”, “administered after 30 minutes” for “administered”, “determined.” for “determined”
The effect of blood glucose reduction was evaluated with the oral glucose tolerance test (OGTT). […] Blood was also taken later at 30, 60, 90, 120 and 150 minutes, and the blood glucose levels in the serum were determined after centrifugation.

[3] = tested on: insulin secretion; assay: effect on insulin secretion compared with Glibenclamide; details: as opposed to Glibenclamide

| SMILES | AMPK phosphorylation relative to control cells ([1]; 3 μM, treated for 5 minutes) | AMPK phosphorylation relative to control cells ([1]; 3 μM, treated for 15 minutes) | AMPK phosphorylation relative to control cells ([1]; 10 μM, treated for 5 minutes) | AMPK phosphorylation relative to control cells ([1]; 10 μM, treated for 15 minutes) | long-term reduction of blood glucose (OGTT) ([2]; 10 mg/Kg/day for 14 consecutive days, glucose 1 g/Kg orally after 30 minutes, compared with Glibenclamide 10 mg/Kg (FIG. 4)) | fast reduction of blood glucose (OGTT) ([2]; 10 mg/Kg/day, administration on day 1, glucose 1 g/Kg orally after 30 minutes, compared with Glibenclamide 10 mg/Kg (FIG. 3)) | effect on insulin secretion [3] |
| --- | --- | --- | --- | --- | --- | --- | --- |
| COc1ccc(C[C@H]2c3cc(O)c(OC)cc3CCN2C)cc1O [reticuline] | 1.52 times of that in the control cells | 1.04 times of that in the control cells | 2.05 times of that in the control cells | 2.07 times of that in the control cells | – | – | – |
| CC1NCCc2cc(O)c(O)cc21 (centres unmarked) [salsolinol] | – | – | 1.66 times of that in the control cells | – | blood glucose-reduction effect similar to that of Glibenclamide | blood glucose-reduction effect similar to that of Glibenclamide | lower effect on insulin secretion |
